Assay results reported in article PMC11444331 (Journal of medicinal chemistry, 2024).
Bridge positions count the residues as written; N and C are the ends. Peptide text beside a SMILES is read from it.

Experiments:
human α9α10 nAChRs = human α9α10 nAChRs (Homo sapiens, UniProt Q9GZZ6+Q9UGM1); assay: cell-based
human α7 nAChRs = human α7 nAChRs (Homo sapiens, UniProt P36544); assay: cell-based
Chain of human α7 nAChRs (P36544 23-502 limits assumed): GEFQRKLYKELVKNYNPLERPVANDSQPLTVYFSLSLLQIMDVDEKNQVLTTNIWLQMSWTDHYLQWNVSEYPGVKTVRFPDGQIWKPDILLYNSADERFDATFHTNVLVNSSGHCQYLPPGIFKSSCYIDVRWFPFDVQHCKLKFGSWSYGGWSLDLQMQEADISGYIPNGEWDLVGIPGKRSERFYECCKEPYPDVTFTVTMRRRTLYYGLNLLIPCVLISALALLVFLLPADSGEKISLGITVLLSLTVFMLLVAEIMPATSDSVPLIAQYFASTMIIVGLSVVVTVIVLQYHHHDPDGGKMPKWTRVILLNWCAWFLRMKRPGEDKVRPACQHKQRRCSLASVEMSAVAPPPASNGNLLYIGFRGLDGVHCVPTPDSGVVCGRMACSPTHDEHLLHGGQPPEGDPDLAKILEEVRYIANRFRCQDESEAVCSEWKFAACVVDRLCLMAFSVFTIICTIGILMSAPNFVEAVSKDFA

Chain of human α9α10 nAChRs (Q9UGM1 26-479 limits assumed): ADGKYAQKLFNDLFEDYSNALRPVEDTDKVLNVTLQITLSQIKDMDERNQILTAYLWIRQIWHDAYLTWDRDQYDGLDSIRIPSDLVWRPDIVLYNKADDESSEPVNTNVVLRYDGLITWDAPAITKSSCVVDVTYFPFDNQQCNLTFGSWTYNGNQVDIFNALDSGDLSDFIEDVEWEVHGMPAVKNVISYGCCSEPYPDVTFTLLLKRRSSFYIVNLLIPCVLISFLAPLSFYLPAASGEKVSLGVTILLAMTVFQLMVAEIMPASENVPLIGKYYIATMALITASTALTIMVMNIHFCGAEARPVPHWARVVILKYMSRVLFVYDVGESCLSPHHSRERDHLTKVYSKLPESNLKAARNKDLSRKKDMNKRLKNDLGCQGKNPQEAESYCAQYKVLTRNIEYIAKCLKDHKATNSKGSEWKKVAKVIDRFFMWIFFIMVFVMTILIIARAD
Chain of human α9α10 nAChRs (Q9GZZ6 25-450 limits assumed): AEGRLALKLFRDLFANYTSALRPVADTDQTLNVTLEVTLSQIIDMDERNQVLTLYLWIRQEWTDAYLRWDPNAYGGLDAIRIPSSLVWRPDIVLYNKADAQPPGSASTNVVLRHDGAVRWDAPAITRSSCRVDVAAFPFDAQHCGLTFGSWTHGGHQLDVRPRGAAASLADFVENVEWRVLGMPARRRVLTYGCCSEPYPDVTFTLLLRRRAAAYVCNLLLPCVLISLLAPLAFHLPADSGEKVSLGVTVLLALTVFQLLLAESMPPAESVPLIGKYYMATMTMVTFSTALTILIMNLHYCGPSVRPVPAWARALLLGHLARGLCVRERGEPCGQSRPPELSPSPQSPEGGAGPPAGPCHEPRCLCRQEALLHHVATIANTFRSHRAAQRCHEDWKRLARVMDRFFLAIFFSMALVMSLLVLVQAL

With `C[C@@H]1NC(=O)[C@H](CCCNC(=N)N)NC(=O)[C@H](CO)NC(=O)[C@H](CCCNC(=N)N)NC(=O)[C@H](CO)NC(=O)[C@@H]2CSSC[C@H](NC(=O)CN)C(=O)N[C@@H](CSSC[C@@H](C(N)=O)NC(=O)[C@H](CO)NC(=O)[C@H](CO)NC1=O)C(=O)N[C@@H](CO)C(=O)N[C@@H](Cc1c[nH]cn1)C(=O)N1CCC[C@H]1C(=O)N[C@@H](C)C(=O)N2` [conofurin-Delta-SRSRASS] (H-GCCSHPACSRSRASSC-NH2; disulfide 2-8, 3-16) the IC50 (human α9α10 nAChRs) was over 10 µM and the IC50 (human α7 nAChRs) was 5.4 µM.
